Data set [1] is described as follows: In vivo tolerability, body weight changes. Further details: species or system C57BL/6 mice. As to conditions: intravenous, repeat dosing, 0.5, 1.0 or 2.0 mg/kg. The protocol:
To determine whether CLR 1899 is tolerated in vivo, the compound was administered intravenously to healthy C57BL/6 mice at dose levels of 0.5 mg/kg, 1.0 mg/kg, or 2.0 mg/kg, and body weight changes were observed (FIG. 12). […] The in vivo efficacy of CLR 1899 was studied in MCF-7 xenograft model (FIG. 13, 10 mice per dose group). Reduction in tumor volume was recorded.

The nature of data set [2]: In vitro cytotoxicity of CLR 1899. In kind it is cell-based. As to conditions: human, NHDF (normal dermal fibroblasts); read-out: Minimum % viability. The protocol:
CLR 1899 was administered to cell lines A375 (human malignant melanoma), A549 (human lung adenocarcinoma), HCT 116 (human colon cancer), and NHDF (normal human dermal fibroblasts).

Data set [3] deals with NHDF (normal human dermal fibroblasts). The data set is described as follows: IC50 of PLE-flavagline conjugates in cell lines. In kind it is cell-based. As to conditions: read-out: IC50 NHDF.
The test system of data set [4] is HCT 116 (human colon cancer). Nature of the data set: IC50 of PLE-flavagline conjugates in cell lines. In kind it is cell-based. As to conditions: HCT-116, read-out: IC50 HCT 116.
The next data set can be described thus: in vivo. In kind it is in vivo, mice. As for the experimental part:
Listed in Table 5 are the doses administered to the mice, and how many mice were alive after treatment (“3/3” indicates 3 out of 3 mice were alive). […] MTD for CLR 1865 was between 5 and 10 mg/kg.

A further data set relates to A375 and A549 cells. Nature of the data set: FLV3 levels in cell lysate and growth media by LC/MS. As to conditions: after 24 hours, CLR 1852 and FLV3 alone administered. Type of data set: cell-based, human. The protocol: The levels of FLV3 in cell lysate and growth media were measured using LC/MS. […] Levels of intracellular FLV3 appeared to plateau at 24 hours, while extracellular levels of FLV3 continued to increase.

In data set [5] the test system is A549 (human lung adenocarcinoma). The data set is described as follows: cells. Type of data set: cell-based.
For data set [6], the system named is A375 (human malignant melanoma). Nature of the data set: IC50 of PLE-flavagline conjugates in cell lines. Type of data set: cell-based. As to conditions: A-375, read-out: IC50 A375.

By viability is commonly meant a per cent measure of how many cells are alive, often set against a control. A word on the IC50: it is the concentration needed to halve the response being measured.

As to `COC(=O)[C@H]1[C@@H](O)[C@@]2(O)c3c(OC)cc(OCCCCNC(=O)CNC(=O)CNC(=O)CNC(=O)c4ccc(CCCCCCCCCCCCCCCCCCOP(=O)([O-])OCC[N+](C)(C)C)cc4)cc3O[C@@]2(c2ccc(OC)cc2)[C@@H]1c1ccccc1` [CLR 1899], in data set [1], the “toxicity or adverse events as measured by changes in weight” value is “no toxicity or adverse events”. Further, in data set [2], the viability amounted to 41.7%.
As for `COC(=O)[C@@H]1[C@H](O)[C@]2(O)c3c(OC)cc(OCCCCN)cc3O[C@]2(c2ccc(OC)cc2)[C@H]1c1ccccc1` [FLV3], the IC50 in data set [3] stood at 8 nM; in data set [4] it was 9 nM; in data set [5] (Homo sapiens, A549, read-out: IC50 A549), 90 nM; in data set [6], 15 nM. Besides, the “mice alive after treatment” value in “in vivo” (Dose 0.1 mg/kg) and in the data set “in vivo” (Dose 0.25 mg/kg) was 3/3 throughout. For the same compound, the “levels of FLV3 in the cell lysate” value in the data set with A375 and A549 cells is recorded as “high levels”. In addition, the “levels of FLV3 in the growth media” value in the data set with A375 and A549 cells is “Moderate levels”. Also, in data set [5] (in vitro, NHDF IC50 relative to cancer cell IC50), the “Therapeutic Index (TI)” value turned out to be 0.89.

The values above are taken from patent publication US12496346B2, “Phospholipid-flavagline conjugates and methods of using the same for targeted cancer therapy” (Cellectar Biosciences, Inc., priority 2019, dated 2025).
